Experimental data as given in PubChem BioAssay (NCI).
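The compound was tested at five concentrations on cells cultured in 96-well plates, with a 48-hour exposure period. The concentration for 50% growth inhibition is given as GI50. The concentration for full growth arrest is given as TGI.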

What was measured:
Assay in all cases: NCI tumour cell line growth inhibition, 48 h
[1] = test system: SK-MEL-28 melanoma
[2] = test system: KM12 colon
[3] = test system: 786-0 renal
[4] = test system: EKVX NSCLC
[5] = test system: SF-295 CNS
[6] = test system: HOP-62 NSCLC
[7] = test system: UO-31 renal
[8] = test system: SW-620 colon
[9] = test system: SK-MEL-5 melanoma
[10] = test system: MCF7 breast

Row | Structure (SMILES) | TGI [1] [µM] | TGI [2] [µM] | TGI [3] [µM] | TGI [4] [µM] | TGI [5] [µM] | TGI [6] [µM] | TGI [7] [µM] | TGI [8] [µM] | TGI [9] [µM] | TGI [10] [µM] | GI50 [1] [µM] | GI50 [2] [µM] | GI50 [3] [µM] | GI50 [4] [µM] | GI50 [5] [µM] | GI50 [6] [µM] | GI50 [7] [µM] | GI50 [8] [µM] | GI50 [9] [µM]
1 | CCOc1ccc(NC(=O)CCc2nnc(SC)o2)cc1 | > 100 | > 100 | > 100 | > 100 | > 100 | > 100 | > 100 | > 100 | > 100 |  |  |  |  |  |  |  |  |  | 
2 | Cc1cc2c(c(C(N)=O)c1C)-c1cc(Cl)cc(Cl)c1C2=O | > 100 | > 100 | > 100 | > 100 | > 100 | > 100 | > 100 |  |  |  |  |  |  |  |  |  |  |  | 
3 | c1cc(-c2cn3c(n2)SCC3)ccn1 | > 100 | > 100 | 44.5 | > 100 | > 100 | > 100 | > 100 | > 57.7 | > 100 |  |  |  |  |  |  |  |  |  | 
4 | O=C1c2ccccc2N2OC3(N4CCCC4)CCCCC3C12c1ccccc1 (stereo not given) | 76.2 |  | 31.6 | > 100 | 32.7 | > 100 | > 100 | 31.5 | 32 |  |  |  |  |  |  |  |  |  | 
5 | N#CC1(C#N)C(c2ccccc2)C=CC12OCCCO2 (stereo not given) | > 100 | > 100 | > 100 | > 100 | > 100 | > 100 | > 100 | > 100 | > 100 |  |  |  |  |  |  |  |  |  | 
6 | O=C(/C=C/c1ccc(Cl)c(Cl)c1)c1cccc2ccccc12 | 33.5 | 16.3 | 13.2 | 32.5 | 24.5 | 31.4 | 33.8 | 3.08 | 34.7 |  |  |  |  |  |  |  |  |  | 
7 | Cc1ccccc1-n1c(N)c(-c2nc3ccccc3[nH]2)sc1=S | 39.3 | 39.9 | 81.3 | 88.5 | 42.4 | 46 | 45.6 | 72.5 | 36.6 |  |  |  |  |  |  |  |  |  | 
8 | O=C(Cc1nc2ccccc2o1)C(=O)Nc1cccc(C(F)(F)F)c1 | > 100 | > 100 | > 100 | > 100 | > 100 | > 100 | > 100 | > 100 | > 100 |  |  |  |  |  |  |  |  |  | 
9 | CCCCNc1nc(NC2OCC(OC(C)=O)C(OC(C)=O)C2OC(C)=O)c(N=O)c(=O)n1C (stereo not given) | > 10 | > 10 | > 10 | > 10 | > 10 | > 10 |  | > 10 | > 10 | > 10 |  |  |  |  |  |  |  |  | 
10 | Oc1cccc2c1NCCC2 | > 100 | > 100 | > 100 | > 100 | > 22.6 | 42.5 | 13.5 | > 100 | 1.85 |  | 2.19 | 0.903 | 0.734 | 1.78 | 0.139 | 0.146 | 0.075 | 0.133 | 0.109
11 | Fc1cccc(F)c1C(Nc1nncs1)Nc1nncs1 | > 100 | > 100 | > 100 |  | > 100 | > 100 | > 100 | > 100 | > 100 | > 100 |  |  |  |  |  |  |  |  | 
